Results reported in PMC6321168, “Comparative Study on Excretive Characterization of Main Components in Herb Pair Notoginseng-Safflower and Single Herbs by LC–MS/MS” (Pharmaceutics, 2018).

Assay: Fecal excretion study in rats after oral NS, SF or CNS (LC–MS/MS)
Format: in vivo
Details: rat feces
Procedure: The animal room was set at constant temperature of 20 ± 2 °C with humidity of 50 ± 20% and 12/12 h light/dark cycle.
Eighteen male rats were fasted for 12 h before starting the experiment. The rats were divided into three groups at random (n = 6) and received NS (60 mg/kg), SF (50 mg/kg), and NS (60 mg/kg) + SF (50 mg/kg), respectively, by oral gavage. The rats were placed in separate metabolic cages. The urine samples were collected at 0–2, 2–4, 4–6, 6–8, 8–12, 12–24, 24–36, 36–48, 48–72, 72–96, and 96–120 h. The feces samples were collected at 0–4, 4–8, 8–12, 12–24, 24–36, 36–48, 48–72, 72–96, and 96–120 h. The urine volume was recorded and the dry feces were measured for each collection period. Samples were stored at −80 °C until analysis.
Feces samples were homogenized in ultrapure water (1 g/15 mL), soaked for 30 min, ultrasonically extracted for 30 min and centrifuged at 9000 rpm for 8 min. An aliquot of 200 μL feces water extraction solution was mixed with 10 μL of IS and then extracted three times with water-saturated n-BuOH (150 μL). The upper organic phase was combined and evaporated to dryness using a ZLS-2 vacuum centrifugal concentrator. The residue was treated as the urine sample and a 1-μL aliquot was injected for LC–MS analysis.
Ultra fast liquid chromatography (UFLC) analysis was performed using a Shimadzu UFLC system (DGU-20A3R Degasser; LC-20AD pump; SIL-20AXR Autosampler; CTO-20AC Column Oven) (Nakagyo-Ku, Koyoto, Japan). […] Because of the different endogenous substances in the urine and feces samples, different elution gradients were used to alleviate the matrix effects for the analytes.
The mass spectrometric detection was performed on an ABSciex 4500 Qtrap mass spectrometer (ABSciex, Foster City, CA, USA) equipped with a negative electrospray ionization (ESI) interface using multiple reaction monitoring (MRM). The MS parameters were optimized under the selected ion monitoring conditions as follows: curtain gas, 35 psi; ionspray voltage, 4500 V; turbo gas temperature, 450 °C; GS1, 45 psi; GS2, 45 psi. All data were acquired and analyzed by Analyst software (Versions 1.6.2) from ABSciex.
The accumulative excretion percentage was calculated for each analyte as follows. Excretion at time (t) = [concentration of the analyte (ng/mL) at t] × total urine (or feces) volume (mL) at t. The cumulative excretion up to time t (mg) was expressed as a percent (%) cumulative excretion by dividing by the total amount of the analyte ingested (mg): % Cumulative Excretion = 100 × (Σt excretiont) total ingested.

CC(C)=CCC[C@](C)(O[C@@H]1O[C@H](CO)[C@@H](O)[C@H](O)[C@H]1O)[C@H]1CC[C@]2(C)[C@@H]1[C@H](O)C[C@@H]1[C@@]3(C)CC[C@H](O)C(C)(C)[C@@H]3[C@@H](O[C@@H]3O[C@H](CO)[C@@H](O)[C@H](O)[C@H]3O[C@@H]3O[C@@H](C)[C@H](O)[C@@H](O)[C@H]3O)C[C@]12C [ginsenoside Re]
concentration at 4 h (male, Sprague Dawley, oral CNS 110 mg/kg, 4 h): 87 ± 124 ng/mL | concentration at 8 h (male, Sprague Dawley, oral CNS 110 mg/kg, 8 h): 267 ± 204 ng/mL | concentration at 12 h (male, Sprague Dawley, oral CNS 110 mg/kg, 12 h): 330 ± 26 ng/mL | concentration at 24 h (male, Sprague Dawley, oral CNS 110 mg/kg, 24 h): 366 ± 20 ng/mL | concentration at 36 h (male, Sprague Dawley, oral CNS 110 mg/kg, 36 h): 367 ± 26 ng/mL | concentration at 48 h (male, Sprague Dawley, oral CNS 110 mg/kg, 48 h): 354 ± 28 ng/mL | concentration at 72 h (male, Sprague Dawley, oral CNS 110 mg/kg, 72 h): 168 ± 69 ng/mL | concentration at 96 h (male, Sprague Dawley, oral CNS 110 mg/kg, 96 h): 44 ± 43 ng/mL | concentration at 4 h (male, Sprague Dawley, oral NS 60 mg/kg, 4 h): 323 ± 43 ng/mL | concentration at 8 h (male, Sprague Dawley, oral NS 60 mg/kg, 8 h): 455 ± 18 ng/mL | concentration at 12 h (male, Sprague Dawley, oral NS 60 mg/kg, 12 h): 401 ± 27 ng/mL | concentration at 24 h (male, Sprague Dawley, oral NS 60 mg/kg, 24 h): 430 ± 15 ng/mL | concentration at 36 h (male, Sprague Dawley, oral NS 60 mg/kg, 36 h): 421 ± 18 ng/mL | concentration at 48 h (male, Sprague Dawley, oral NS 60 mg/kg, 48 h): 561 ± 26 ng/mL | concentration at 72 h (male, Sprague Dawley, oral NS 60 mg/kg, 72 h): 81 ± 6 ng/mL | concentration at 96 h (male, Sprague Dawley, oral NS 60 mg/kg, 96 h): 18 ± 1 ng/mL | concentration at 120 h (male, Sprague Dawley, oral NS 60 mg/kg, 120 h): 17 ± 2 ng/mL | Accumulative excretion amount (oral CNS 110 mg/kg, 4 h): 1.098 ± 1.616 µg | Accumulative excretion percentage (oral CNS 110 mg/kg, 4 h): 0.234±0.345% | Excretion amount (oral CNS 110 mg/kg, 4 h): 1.098 ± 1.616 µg | Accumulative excretion amount (oral CNS 110 mg/kg, 8 h): 4.802 ± 4.393 µg | Accumulative excretion percentage (oral CNS 110 mg/kg, 8 h): 1.022±0.936% | Excretion amount (oral CNS 110 mg/kg, 8 h): 3.705 ± 2.813 µg | Accumulative excretion amount (oral CNS 110 mg/kg, 12 h): 9.675 ± 4.726 µg | Accumulative excretion percentage (oral CNS 110 mg/kg, 12 h): 2.051±1.001% | Excretion amount (oral CNS 110 mg/kg, 12 h): 4.873 ± 1.226 µg | Accumulative excretion amount (oral CNS 110 mg/kg, 24 h): 15.135 ± 5.426 µg | Accumulative excretion percentage (oral CNS 110 mg/kg, 24 h): 3.203±1.152% | Excretion amount (oral CNS 110 mg/kg, 24 h): 5.459 ± 1.584 µg | Accumulative excretion amount (oral CNS 110 mg/kg, 36 h): 20.570 ± 6.347 µg | Accumulative excretion percentage (oral CNS 110 mg/kg, 36 h): 4.364±1.343% | Excretion amount (oral CNS 110 mg/kg, 36 h): 5.435 ± 1.413 µg | Accumulative excretion amount (oral CNS 110 mg/kg, 48 h): 25.852 ± 7.369 µg | Accumulative excretion percentage (oral CNS 110 mg/kg, 48 h): 5.469±1.568% | Excretion amount (oral CNS 110 mg/kg, 48 h): 5.282 ± 1.513 µg | Accumulative excretion percentage (oral CNS 110 mg/kg, 72 h): 6.027±1.613% | Excretion amount (oral CNS 110 mg/kg, 72 h): 2.615 ± 1.424 µg | Accumulative excretion amount (oral CNS 110 mg/kg, 96 h): 29.184 ± 7.675 µg | Accumulative excretion percentage (oral CNS 110 mg/kg, 96 h): 6.182±1.623% | Excretion amount (oral CNS 110 mg/kg, 96 h): 0.717 ± 0.713 µg | Accumulative excretion amount (oral CNS 110 mg/kg, 120 h): 29.184 ± 7.675 µg | Accumulative excretion percentage (oral CNS 110 mg/kg, 120 h): 6.182±1.623% | Accumulative excretion amount (oral NS 60 mg/kg, 4 h): 4.585 ± 1.408 µg | Accumulative excretion percentage (oral NS 60 mg/kg, 4 h): 0.852±0.261% | Excretion amount (oral NS 60 mg/kg, 4 h): 4.585 ± 1.408 µg | Accumulative excretion amount (oral NS 60 mg/kg, 8 h): 11.148 ± 3.459 µg | Accumulative excretion percentage (oral NS 60 mg/kg, 8 h): 2.063±0.644% | Excretion amount (oral NS 60 mg/kg, 8 h): 6.563 ± 2.122 µg | Accumulative excretion amount (oral NS 60 mg/kg, 12 h): 16.907 ± 5.229 µg | Accumulative excretion percentage (oral NS 60 mg/kg, 12 h): 3.122±0.971% | Excretion amount (oral NS 60 mg/kg, 12 h): 5.759 ± 1.787 µg | Accumulative excretion amount (oral NS 60 mg/kg, 24 h): 23.057 ± 7.062 µg | Accumulative excretion percentage (oral NS 60 mg/kg, 24 h): 4.266±1.305% | Excretion amount (oral NS 60 mg/kg, 24 h): 6.150 ± 1.850 µg | Accumulative excretion amount (oral NS 60 mg/kg, 36 h): 29.162 ± 9.141 µg | Accumulative excretion percentage (oral NS 60 mg/kg, 36 h): 5.397± 1.699% | Excretion amount (oral NS 60 mg/kg, 36 h): 6.105 ± 2.098 µg | Accumulative excretion amount (oral NS 60 mg/kg, 48 h): 37.268 ± 11.835 µg | Accumulative excretion percentage (oral NS 60 mg/kg, 48 h): 6.892±2.193% | Excretion amount (oral NS 60 mg/kg, 48 h): 8.106 ± 2.700 µg | Accumulative excretion amount (oral NS 60 mg/kg, 72 h): 38.423 ± 12.180 µg | Accumulative excretion percentage (oral NS 60 mg/kg, 72 h): 7.103±2.254% | Excretion amount (oral NS 60 mg/kg, 72 h): 1.155 ± 0.306 µg | Accumulative excretion amount (oral NS 60 mg/kg, 96 h): 38.685 ± 12.265 µg | Accumulative excretion percentage (oral NS 60 mg/kg, 96 h): 7.149±2.268% | Excretion amount (oral NS 60 mg/kg, 96 h): 0.262 ± 0.086 µg | Accumulative excretion amount (oral NS 60 mg/kg, 120 h): 38.937 ± 12.350 µg | Accumulative excretion percentage (oral NS 60 mg/kg, 120 h): 7.187±2.278% | Excretion amount (oral NS 60 mg/kg, 120 h): 0.252 ± 0.091 µg
